Results: article PMC6167110, “NgcE^Sco Acts as a Lower-Affinity Binding Protein of an ABC Transporter for the Uptake of N,N′-Diacetylchitobiose in Streptomyces coelicolor A3(2)” (Microbes and Environments, 2018)

How the values were obtained:
[1] = molecular target: T1, NgcE^Sco (SCO6005) (Streptomyces coelicolor, UniProt O50499); assay: isothermal titration calorimetry; assay type: binding; conditions: 20 mM Tris/HCl pH 8.0, 30°C; single-site fit
T1 construct: without putative signal peptide (29 N-terminal residues); from E. coli
T1 sequence (O50499 30-469): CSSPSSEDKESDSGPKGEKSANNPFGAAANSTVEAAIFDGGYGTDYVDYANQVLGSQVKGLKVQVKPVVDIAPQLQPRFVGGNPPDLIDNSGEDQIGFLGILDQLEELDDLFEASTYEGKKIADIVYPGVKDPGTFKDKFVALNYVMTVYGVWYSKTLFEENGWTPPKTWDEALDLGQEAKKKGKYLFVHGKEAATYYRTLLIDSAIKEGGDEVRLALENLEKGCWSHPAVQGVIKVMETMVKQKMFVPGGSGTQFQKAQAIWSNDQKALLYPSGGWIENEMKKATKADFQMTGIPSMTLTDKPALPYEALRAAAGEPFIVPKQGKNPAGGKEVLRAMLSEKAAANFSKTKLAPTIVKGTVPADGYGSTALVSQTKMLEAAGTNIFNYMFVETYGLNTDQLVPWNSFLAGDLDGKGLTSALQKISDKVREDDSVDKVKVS
Text: isothermal titration calorimetry on NgcE^Sco (SCO6005)

[2] = molecular target: T1, NgcE^Sco (SCO6005); assay: intrinsic protein fluorescence titration; assay type: binding
[3] = molecular target: T2, DasR (DasR-6His) (Streptomyces coelicolor, UniProt Q9K492); assay: EMSA, inhibition of DasR binding to dre^ngcE DNA; conditions: Cy5-labeled dre^ngcE DNA probe; allosteric
T2 construct: DasR-6His from pFT240, expressed in E. coli BL21(DE3), Ni-agarose purified

[4] = molecular target: T3, NgcE of S. olivaceoviridis (Streptomyces olivaceoviridis, UniProt Q8RJV0); assay: intrinsic protein fluorescence titration; assay type: binding; conditions: fluorescence increase
T3 construct: N-terminally His-tagged, from E. coli carrying pQEH301
T3 sequence (Q8RJV0 47-489): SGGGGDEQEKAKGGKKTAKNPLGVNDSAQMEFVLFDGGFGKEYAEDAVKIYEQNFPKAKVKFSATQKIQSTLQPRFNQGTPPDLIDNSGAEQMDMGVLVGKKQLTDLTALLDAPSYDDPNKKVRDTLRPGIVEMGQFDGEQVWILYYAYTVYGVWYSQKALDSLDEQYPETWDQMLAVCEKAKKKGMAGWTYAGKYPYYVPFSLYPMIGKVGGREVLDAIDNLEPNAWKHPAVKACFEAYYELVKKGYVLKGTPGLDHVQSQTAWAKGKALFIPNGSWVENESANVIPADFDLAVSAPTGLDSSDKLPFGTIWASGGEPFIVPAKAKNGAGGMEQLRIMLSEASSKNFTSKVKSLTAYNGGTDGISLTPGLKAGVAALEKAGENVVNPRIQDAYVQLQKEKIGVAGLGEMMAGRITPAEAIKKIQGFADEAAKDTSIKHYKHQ

[5] = molecular target: T4, DasR-6His (Streptomyces coelicolor A3(2), UniProt Q9K492 1-254); assay: EMSA; EMSA: Cy5 probe ~0.1 mM and DasR-6His ~1 mM (so in the source); probably uM) in 50 uL, 1% agarose gel; buffer, salt, pH and temperature not given; conditions: protein: recombinant; tags: C-terminal 6xHis; chain copies: 2; label: Cy5 on the printed strand; blunt
T4 sequence: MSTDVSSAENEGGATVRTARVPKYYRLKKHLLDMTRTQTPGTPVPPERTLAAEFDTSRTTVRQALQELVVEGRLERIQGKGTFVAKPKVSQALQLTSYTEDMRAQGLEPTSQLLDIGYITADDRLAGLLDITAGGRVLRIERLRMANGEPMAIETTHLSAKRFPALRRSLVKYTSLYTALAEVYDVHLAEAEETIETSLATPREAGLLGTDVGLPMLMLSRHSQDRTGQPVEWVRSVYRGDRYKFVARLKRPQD

Work on `CC(=O)N[C@H]1[C@H](O[C@H]2[C@H](O)[C@@H](NC(C)=O)C(O)O[C@@H]2CO)O[C@H](CO)[C@@H](O)[C@@H]1O` (stereo partly shown) [(GlcNAc)2] yielded a Kd [1] of 1530 nM.

Molecule `CC(=O)N[C@H]1C(O)O[C@H](CO)[C@H](O)[C@@H]1O` (stereo partly shown) [GalNAc] has a Kd [2] of 12 µM.

In the case of `N[C@H]1C(O)O[C@H](COP(=O)(O)O)[C@@H](O)[C@@H]1O` (stereo partly shown) [GlcN-6P], the “EMSA, inhibition of DasR binding to dre^ngcE DNA” value [3] is reported as “binding of DasR to the dre^ngcE-containing probe was inhibited by GlcNAc-6P and GlcN-6P”.

In the case of `CC(=O)N[C@H]1C(O)O[C@H](COP(=O)(O)O)[C@@H](O)[C@@H]1O` (stereo partly shown) [GlcNAc-6P], the “EMSA, inhibition of DasR binding to dre^ngcE DNA” value [3] is reported as “binding of DasR to the dre^ngcE-containing probe was inhibited by GlcNAc-6P and GlcN-6P”.

`CC(=O)N[C@H]1C(O)O[C@H](CO)[C@@H](O)[C@@H]1O` (stereo partly shown) [GlcNAc] was tested, and the Kd [4] was 85 nM and the Kd [1] was 1150 nM.

`CC(=O)N[C@H]1C(O)O[C@H](CO)[C@@H](O)[C@@H]1O[C@H](C)C(=O)O` (stereo partly shown) [MurNAc] gave a Kd [2] of 25 µM.

B1: drenagKA (dsDNA)
DNA 1: CGTACACCCGGGAGAGGTCTAGTCCACTGCGGTGGTGTAG
DNA 2: CTACACCACCGCAGTGGACTAGACCTCTCCCGGGTGTACG
B1: binds [5].

B2: drengcE (dsDNA)
DNA 1: CCGCCAAGCGAAAGTGGACTATACCTGTCGGCACTCCGGG
DNA 2: CCCGGAGTGCCGACAGGTATAGTCCACTTTCGCTTGGCGG
B2: binds [5].

B3: dredasA (dsDNA)
DNA 1: CAAGCTCCCCGTACTGGTCTACACCATTGGTCCAGGTCCC
DNA 2: GGGACCTGGACCAATGGTGTAGACCAGTACGGGGAGCTTG
B3: binds [5].
